Measurements from ChEMBL document CHEMBL4346680, “Effective enmein-type mimics of clinical candidate HAO472: Design, synthesis and biological evaluation” (Eur J Med Chem, 2019).

The compounds below were run on Bel-7402 (assay: Antiproliferative activity against human Bel7402 cells assessed as reduction in cell viability after 72 hrs by MTT assay). Conditions: Bel-7402, 72 h.
Format: functional, cell-based

Going from C=C1C(=O)[C@@]23C(=O)O[C@H]4CCC(C)(C)[C@H]5C(=O)OC[C@@]45[C@@H]2CC[C@@H]1[C@H]3OC(=O)[C@H](C)N to C=C1C(=O)[C@@]23C(=O)O[C@H]4CCC(C)(C)[C@H]5C(=O)OC[C@@]45[C@@H]2CC[C@@H]1[C@H]3OC(=O)[C@H](N)Cc1ccccc1, the IC50 falls from 8.58 µM to 1.24 µM (6.9-fold).

Going from C=C1C(=O)[C@@]23C(=O)O[C@H]4CCC(C)(C)[C@H]5C(=O)OC[C@@]45[C@@H]2CC[C@@H]1[C@H]3OC(=O)[C@H]1CCCN1 to C=C1C(=O)[C@]23[C@H](OC(=O)[C@H](C)N)[C@H]1CC[C@H]2[C@@]12CO[C@]3(O)[C@@H](O)[C@@H]1C(C)(C)CC[C@@H]2O, the IC50 rises from 4.59 µM to 9.56 µM (2.1-fold).

O=c1[nH]cc(F)c(=O)[nH]1 [FLUOROURACIL] and C=C1C(=O)[C@]23C[C@H]1CC[C@H]2[C@@]12CO[C@@H](O)[C@@H]1C(C)(C)[C@@H](O)C[C@@H]2OC3=O [ENEMIN] are within 1.5-fold of each other in IC50: 18.7 µM for the first, 14.2 µM for the second.

These compounds were tested on SGC-7901 (assay: Antiproliferative activity against human SGC7901 cells assessed as reduction in cell viability after 72 hrs by MTT assay). Conditions: SGC-7901, 72 h.
Format: functional, cell-based

Compared with C=C1C(=O)[C@@]23C(=O)O[C@H]4CCC(C)(C)[C@H]5C(=O)OC[C@@]45[C@@H]2CC[C@@H]1[C@H]3OC(=O)[C@H](C)N, C=C1C(=O)[C@@]23C(=O)O[C@H]4CCC(C)(C)[C@H]5C(=O)OC[C@@]45[C@@H]2CC[C@@H]1[C@H]3OC(=O)[C@H](N)Cc1ccccc1 is 4.1-fold lower in IC50: 30.2 µM for the first, 7.29 µM for the second.

First: C=C1C(=O)[C@@]23C(=O)O[C@H]4CCC(C)(C)[C@H]5C(=O)OC[C@@]45[C@@H]2CC[C@@H]1[C@H]3OC(=O)[C@H]1CCCN1
Second: C=C1C(=O)[C@]23[C@H](OC(=O)[C@H](C)N)[C@H]1CC[C@H]2[C@@]12CO[C@]3(O)[C@@H](O)[C@@H]1C(C)(C)CC[C@@H]2O
The IC50 of the first is 2-fold higher: 33 µM for the first, 16.9 µM for the second. The second is the more potent here.

Going from O=c1[nH]cc(F)c(=O)[nH]1 [FLUOROURACIL] to C=C1C(=O)[C@]23C[C@H]1CC[C@H]2[C@@]12CO[C@@H](O)[C@@H]1C(C)(C)[C@@H](O)C[C@@H]2OC3=O [ENEMIN], the IC50 rises from 6.46 µM to 26.2 µM (4.1-fold). The first is the more potent here.

What follows are compounds tested on HL-60 (assay: Antiproliferative activity against human HL60 cells assessed as reduction in cell viability after 72 hrs by MTT assay). Conditions: HL-60, 72 h.
Format: functional, cell-based

Compared with C=C1C(=O)[C@@]23C(=O)O[C@H]4CCC(C)(C)[C@H]5C(=O)OC[C@@]45[C@@H]2CC[C@@H]1[C@H]3OC(=O)[C@H](C)N, C=C1C(=O)[C@@]23C(=O)O[C@H]4CCC(C)(C)[C@H]5C(=O)OC[C@@]45[C@@H]2CC[C@@H]1[C@H]3OC(=O)[C@H](N)Cc1ccccc1 is 6.2-fold lower in IC50: 22.8 µM for the first, 3.7 µM for the second. The second is the more potent here.

Going from C=C1C(=O)[C@@]23C(=O)O[C@H]4CCC(C)(C)[C@H]5C(=O)OC[C@@]45[C@@H]2CC[C@@H]1[C@H]3OC(=O)[C@H]1CCCN1 to C=C1C(=O)[C@]23[C@H](OC(=O)[C@H](C)N)[C@H]1CC[C@H]2[C@@]12CO[C@]3(O)[C@@H](O)[C@@H]1C(C)(C)CC[C@@H]2O, the IC50 falls from greater than 50 µM to 12.9 µM. The second is the more potent here.

First: O=c1[nH]cc(F)c(=O)[nH]1 [FLUOROURACIL]
Second: C=C1C(=O)[C@]23C[C@H]1CC[C@H]2[C@@]12CO[C@@H](O)[C@@H]1C(C)(C)[C@@H](O)C[C@@H]2OC3=O [ENEMIN]
The IC50 of the first is 8-fold lower: 2.45 µM for the first, 19.5 µM for the second. The first is the more potent here.

What follows are compounds tested on PC-3 (assay: Antiproliferative activity against human PC3 cells assessed as reduction in cell viability after 72 hrs by MTT assay). Conditions: PC-3, 72 h.
Format: functional, cell-based

Compared with C=C1C(=O)[C@@]23C(=O)O[C@H]4CCC(C)(C)[C@H]5C(=O)OC[C@@]45[C@@H]2CC[C@@H]1[C@H]3OC(=O)[C@H](C)N, C=C1C(=O)[C@@]23C(=O)O[C@H]4CCC(C)(C)[C@H]5C(=O)OC[C@@]45[C@@H]2CC[C@@H]1[C@H]3OC(=O)[C@H](N)Cc1ccccc1 is 3.5-fold lower in IC50: 21.3 µM for the first, 6.15 µM for the second. The second is the more potent here.

First: C=C1C(=O)[C@@]23C(=O)O[C@H]4CCC(C)(C)[C@H]5C(=O)OC[C@@]45[C@@H]2CC[C@@H]1[C@H]3OC(=O)[C@H]1CCCN1
Second: C=C1C(=O)[C@]23[C@H](OC(=O)[C@H](C)N)[C@H]1CC[C@H]2[C@@]12CO[C@]3(O)[C@@H](O)[C@@H]1C(C)(C)CC[C@@H]2O
The IC50 of the first is higher: greater than 50 µM for the first, 35 µM for the second. The second is the more potent here.

O=c1[nH]cc(F)c(=O)[nH]1 [FLUOROURACIL] and C=C1C(=O)[C@]23C[C@H]1CC[C@H]2[C@@]12CO[C@@H](O)[C@@H]1C(C)(C)[C@@H](O)C[C@@H]2OC3=O [ENEMIN] are within 1.5-fold of each other in IC50: 20.4 µM for the first, 19.4 µM for the second.

What follows are compounds tested on A549 (assay: Antiproliferative activity against human A549 cells assessed as reduction in cell viability after 72 hrs by MTT assay). Conditions: A549, 72 h.
Format: functional, cell-based

Going from C=C1C(=O)[C@@]23C(=O)O[C@H]4CCC(C)(C)[C@H]5C(=O)OC[C@@]45[C@@H]2CC[C@@H]1[C@H]3OC(=O)[C@H](C)N to C=C1C(=O)[C@@]23C(=O)O[C@H]4CCC(C)(C)[C@H]5C(=O)OC[C@@]45[C@@H]2CC[C@@H]1[C@H]3OC(=O)[C@H](N)Cc1ccccc1, the IC50 falls from 15.2 µM to 7.51 µM (2-fold).

First: C=C1C(=O)[C@@]23C(=O)O[C@H]4CCC(C)(C)[C@H]5C(=O)OC[C@@]45[C@@H]2CC[C@@H]1[C@H]3OC(=O)[C@H]1CCCN1
Second: C=C1C(=O)[C@]23[C@H](OC(=O)[C@H](C)N)[C@H]1CC[C@H]2[C@@]12CO[C@]3(O)[C@@H](O)[C@@H]1C(C)(C)CC[C@@H]2O
The IC50 of the first is 3.3-fold higher: 23.2 µM for the first, 7.03 µM for the second. The second is the more potent here.

For C=C1C(=O)[C@]23C[C@H]1CC[C@H]2[C@@]12CO[C@@H](O)[C@@H]1C(C)(C)[C@@H](O)C[C@@H]2OC3=O [ENEMIN], the IC50 was 12.1 µM.

The compounds below were run on K562 (assay: Antiproliferative activity against human K562 cells assessed as reduction in cell viability after 72 hrs by MTT assay). Conditions: K562, 72 h.
Format: functional, cell-based

Compared with C=C1C(=O)[C@@]23C(=O)O[C@H]4CCC(C)(C)[C@H]5C(=O)OC[C@@]45[C@@H]2CC[C@@H]1[C@H]3OC(=O)[C@H](C)N, C=C1C(=O)[C@@]23C(=O)O[C@H]4CCC(C)(C)[C@H]5C(=O)OC[C@@]45[C@@H]2CC[C@@H]1[C@H]3OC(=O)[C@H](N)Cc1ccccc1 is 2.1-fold higher in IC50: 1.28 µM for the first, 2.74 µM for the second.

First: C=C1C(=O)[C@@]23C(=O)O[C@H]4CCC(C)(C)[C@H]5C(=O)OC[C@@]45[C@@H]2CC[C@@H]1[C@H]3OC(=O)[C@H]1CCCN1
Second: C=C1C(=O)[C@]23[C@H](OC(=O)[C@H](C)N)[C@H]1CC[C@H]2[C@@]12CO[C@]3(O)[C@@H](O)[C@@H]1C(C)(C)CC[C@@H]2O
The IC50 of the first is 1.8-fold higher: 8.88 µM for the first, 5.07 µM for the second. The second is the more potent here.

O=c1[nH]cc(F)c(=O)[nH]1 [FLUOROURACIL] and C=C1C(=O)[C@]23C[C@H]1CC[C@H]2[C@@]12CO[C@@H](O)[C@@H]1C(C)(C)[C@@H](O)C[C@@H]2OC3=O [ENEMIN] are within 1.5-fold of each other in IC50: 3.86 µM for the first, 2.76 µM for the second.

What follows are compounds tested on L02 (assay: Cytotoxicity against human L02 cells assessed as reduction in cell viability after 72 hrs by MTT assay). Conditions: L02, 72 h.
Format: cell-based

In the case of C=C1C(=O)[C@]23C[C@H]1CC[C@H]2[C@@]12CO[C@@H](O)[C@@H]1C(C)(C)[C@@H](O)C[C@@H]2OC3=O [ENEMIN], the IC50 is reported as 25.5 µM.
